For assay [1], the target named is T1, Hypoxanthine-guanine phosphoribosyltransferase (Homo sapiens, UniProt P00492).
T1 sequence (P00492 whole entry): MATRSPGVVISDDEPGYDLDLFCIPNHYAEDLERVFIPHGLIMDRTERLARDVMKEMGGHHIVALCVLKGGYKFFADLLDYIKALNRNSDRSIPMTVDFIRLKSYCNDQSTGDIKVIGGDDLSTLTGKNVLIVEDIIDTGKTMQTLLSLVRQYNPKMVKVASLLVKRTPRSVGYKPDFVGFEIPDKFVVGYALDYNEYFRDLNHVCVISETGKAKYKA
Put plainly: Inhibition of human HGPRT using xanthine/PRPP assessed as xanthine/guanine conversion to […]guanosine-5'-monophosphate by spectrophotometry in presence of PRPP.

Assay [2] is described as follows: Inhibition of Plasmodium falciparum HGXPRT assessed as xanthine/guanine conversion to xanthosine-5'-monophosphate/guanosine-5'-monophosphate by spectrophotometry in presence of PRPP.

What is called Ki is a measure of affinity in units of concentration, obtained from inhibition or displacement.

In the case of `O=c1[nH]cnc2c(CNCCCP(=O)(O)O)c[nH]c12`, the figures for the Ki in assay [1] and in assay [2] were 4900 nM and 10.6 nM, respectively.

Regarding `O=c1[nH]cnc2c(CNCP(=O)(O)O)c[nH]c12`, the Ki in assay [1] is greater than 10000 nM; in assay [2], greater than 20000 nM.

Turning to `O=c1[nH]cnc2c(CNCCCCP(=O)(O)O)c[nH]c12`, the Ki in assay [1] is greater than 10000 nM; in assay [2], 490 nM.

As to `O=c1[nH]cnc2c(CN[C@H](CO)CC(F)(F)P(=O)(O)O)c[nH]c12`, the results for the Ki in assay [1] and in assay [2] were greater than 10000 nM and 87 nM, respectively.

Take `O=c1[nH]cnc2c(CCNCCCP(=O)(O)O)c[nH]c12`: the Ki in assay [1] was 11300 nM; in assay [2], greater than 20000 nM.

As to `O=c1[nH]cnc2c(CNCC(O)CP(=O)(O)O)c[nH]c12` (racemic), the Ki in assay [1] was greater than 10000 nM; in assay [2], 9.1 nM.

Regarding `O=c1[nH]cnc2c(CCNCCP(=O)(O)O)c[nH]c12`, the values for the Ki in assay [1] and in assay [2] were greater than 10000 nM and 620 nM, respectively.

As for `O=c1[nH]cnc2c(CN[C@H](CO)CC(F)P(=O)(O)O)c[nH]c12` (mixture of isomers), the Ki in assay [2] came out at 1.2 nM.

As to `O=c1[nH]cnc2c(CNC(CO)(CO)COP(=O)(O)O)c[nH]c12`, the Ki in assay [1] is greater than 10000 nM; in assay [2], 15300 nM.

Take `O=c1[nH]cnc2c(CNCCCP(=O)(O)O)n[nH]c12`: the Ki in assay [1] is greater than 10000 nM; in assay [2], 27.6 nM.

Take `Nc1nc2c(CN[C@H](CO)COP(=O)(O)O)c[nH]c2c(=O)[nH]1`: the figures for the Ki in assay [1] and in assay [2] were greater than 10000 nM and 14.3 nM, respectively.

As to `Nc1nc2c(CN[C@H](CO)CC(F)(F)P(=O)(O)O)c[nH]c2c(=O)[nH]1`, the Ki was greater than 10000 nM in assay [1] and 100 nM in assay [2].

Turning to `O=c1[nH]cnc2c(CN[C@H](CO)CCP(=O)(O)O)c[nH]c12`, the Ki in assay [2] stood at 0.65 nM.

As to `O=c1[nH]cnc2c(CNCCOP(=O)(O)O)c[nH]c12`, the Ki was greater than 10000 nM in assay [1] and 14400 nM in assay [2].

With `O=c1[nH]cnc2c(CNCCCCCP(=O)(O)O)c[nH]c12`, the Ki is greater than 10000 nM in assay [1] and 8600 nM in assay [2].

With `O=c1[nH]cnc2c(CN[C@H](CO)[C@H](O)COP(=O)(O)O)c[nH]c12`, the Ki in assay [1] was greater than 10000 nM; in assay [2], 980 nM.

With `Nc1nc2c(CN[C@@H](CO)COP(=O)(O)O)c[nH]c2c(=O)[nH]1`, the inhibitory constant (Ki) was greater than 10000 nM in assay [1] and 650 nM in assay [2].

As for `O=c1[nH]cnc2c(CNC(CO)COP(=O)(O)O)c[nH]c12` (racemic), the Ki in assay [1] was greater than 10000 nM; in assay [2] it was 19 nM.

Turning to `O=c1[nH]cnc2c(CN[C@@H](CO)CCP(=O)(O)O)c[nH]c12`, the inhibition constant Ki in assay [2] was determined as 23.4 nM.

As for `O=c1[nH]cnc2c(CNCC(CO)CP(=O)(O)O)c[nH]c12` (racemic), the Ki in assay [1] is greater than 10000 nM; in assay [2], 490 nM.

In the case of `O=c1[nH]cnc2c(CN[C@H](CO)COP(=O)(O)O)c[nH]c12`, the Ki was greater than 10000 nM in assay [1] and 2.4 nM in assay [2].

Turning to `O=c1[nH]cnc2c(CNCCP(=O)(O)O)c[nH]c12`, the results for the Ki in assay [1] and in assay [2] were greater than 10000 nM and 1900 nM, respectively.

Turning to `O=c1[nH]c(Cl)nc2c(CNC(CO)COP(=O)(O)O)c[nH]c12` (racemic), the Ki in assay [1] was greater than 10000 nM; in assay [2], 9400 nM.

(Values after ChEMBL document CHEMBL2413006, “Acyclic phosph(on)ate inhibitors of Plasmodium falciparum hypoxanthine-guanine-xanthine phosphoribosyltransferase” (Bioorg Med Chem, 2013).)
